Test results published in ChEMBL document CHEMBL3046123, “Molecular bases for resistance to acetyl-coenzyme A carboxylase inhibitor in Japanese foxtail (Alopecurus japonicus)” (Pest Manag Sci, 2012).

Columns and labels:
Alopecurus japonicus [1] = test: Resistance index, ratio of ED50 for haloxyfop-R-methyl-resistant Alopecurus japonicus (Japanese foxtail) biotype Js-R to ED50 for haloxyfop-R-methyl-sensitive Alopecurus japonicus (Japanese foxtail) biotype Js-S; assay type: functional
Alopecurus japonicus [2] = test: Herbicidal activity against haloxyfop-R-methyl-sensitive Alopecurus japonicus (Japanese foxtail) biotype Js-S assessed as inhibition of shoot length after 14 days; assay type: functional
Alopecurus japonicus [3] = test: Herbicidal activity against haloxyfop-R-methyl-resistant Alopecurus japonicus (Japanese foxtail) biotype Js-R assessed as inhibition of shoot length after 14 days; assay type: functional
[4] = biological target: ACCase (Alopecurus japonicus) (UniProt H9BT73); test: Resistance index, ratio of I50 for ACCase in haloxyfop-R-methyl-resistant Alopecurus japonicus (Japanese foxtail) biotype Js-R to I50 for Acetyl-CoA carboxylase (ACCase) in haloxyfop-R-methyl-sensitive Alopecurus japonicus (Japanese foxtail) biotype Js-S
ACCase [5] = biological target: T1, ACCase (Alopecurus japonicus, UniProt H9BT73); test: Inhibition of Acetyl-CoA carboxylase (ACCase) in haloxyfop-R-methyl-resistant Alopecurus japonicus (Japanese foxtail) biotype Js-R shoot extracts; details: read-out: I50
ACCase [6] = biological target: T1, ACCase; test: Inhibition of Acetyl-CoA carboxylase (ACCase) in haloxyfop-R-methyl-sensitive Alopecurus japonicus (Japanese foxtail) biotype Js-S shoot extracts; details: read-out: I50

SMILES | Ratio (Alopecurus japonicus [1]) | ED50 (Alopecurus japonicus [2]) | ED50 (Alopecurus japonicus [3]) | Ratio [4] | IC50 (ACCase [5]) | IC50 (ACCase [6])
C#CCOC(=O)[C@@H](C)Oc1ccc(Oc2ncc(Cl)cc2F)cc1 [CLODINAFOP PROPARGYL] | 5.84 | 0.721 mg/m2 | 4.209 mg/m2 | – | – | –
CCCCOC(=O)[C@H](C)Oc1ccc(Oc2ccc(C#N)cc2F)cc1 [CYHALOFOP-BUTYL] | 4.85 | 0.144 mg/m2 | 0.698 mg/m2 | – | – | –
CCOC(=O)[C@@H](C)Oc1ccc(Oc2nc3ccc(Cl)cc3o2)cc1 [FENOXAPROP-P-ETHYL] | 11.35 | 0.114 mg/m2 | 1.289 mg/m2 | – | – | –
CC(Oc1ccc(Oc2ncc(C(F)(F)F)cc2Cl)cc1)C(=O)O (stereo not given) [HALOXYFOP] | – | – | – | 10.8 | 28 nM | 2.6 nM
CCOC(=O)[C@@H](C)Oc1ccc(Oc2cnc3cc(Cl)ccc3n2)cc1 [QUIZALOFOP-P-ETHYL] | 35.87 | 0.426 mg/m2 | 15.283 mg/m2 | – | – | –
